ChEMBL document CHEMBL1201862, “PubChem BioAssay data set” (2004)
Activity calls are given as the source filed them.

Tests used:
[1] = molecular target: T1, Adenosylmethionine-8-amino-7-oxononanoate aminotransferase (Mycobacterium tuberculosis, UniProt P9WQ81); assay: Mycobacterium tuberculosis BioA enzyme inhibitor Measured in Biochemical System Using Plate Reader - 2163-02_Inhibitor_Dose_CherryPick_Activity.; type: functional, Mycobacterium tuberculosis UT205
T1 sequence (P9WQ81 whole entry): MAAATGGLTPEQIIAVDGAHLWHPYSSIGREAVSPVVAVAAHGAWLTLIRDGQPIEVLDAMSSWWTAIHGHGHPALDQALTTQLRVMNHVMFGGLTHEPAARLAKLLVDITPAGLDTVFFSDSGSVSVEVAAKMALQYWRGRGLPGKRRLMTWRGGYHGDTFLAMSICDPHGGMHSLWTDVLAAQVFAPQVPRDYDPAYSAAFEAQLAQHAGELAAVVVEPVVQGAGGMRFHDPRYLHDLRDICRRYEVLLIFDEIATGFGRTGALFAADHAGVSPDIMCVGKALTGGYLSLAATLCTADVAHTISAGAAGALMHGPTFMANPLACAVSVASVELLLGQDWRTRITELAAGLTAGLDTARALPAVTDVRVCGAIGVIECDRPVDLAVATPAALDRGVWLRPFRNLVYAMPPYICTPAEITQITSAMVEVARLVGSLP

[2] = molecular target: T2, Sentrin-specific protease 8 (Homo sapiens, UniProt Q96LD8); type: functional;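 note: luminescence read-out of SENP8 inhibition, dose-response confirmation following an ultra-high-throughput screen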
T2 sequence (Q96LD8 whole entry): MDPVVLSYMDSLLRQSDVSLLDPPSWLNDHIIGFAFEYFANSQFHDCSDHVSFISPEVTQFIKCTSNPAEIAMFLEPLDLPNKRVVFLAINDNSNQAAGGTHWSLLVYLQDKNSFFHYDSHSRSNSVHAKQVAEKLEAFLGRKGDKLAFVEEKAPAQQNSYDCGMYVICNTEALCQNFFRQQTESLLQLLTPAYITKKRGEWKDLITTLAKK

[3] = molecular target: T3, Sentrin-specific protease 7 (Homo sapiens, UniProt Q9BQF6); type: functional;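 note: Luminescence-based dose-response confirmation of ultra-high-throughput screening hits, measuring inhibition of SENP7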
T3 sequence (Q9BQF6 whole entry): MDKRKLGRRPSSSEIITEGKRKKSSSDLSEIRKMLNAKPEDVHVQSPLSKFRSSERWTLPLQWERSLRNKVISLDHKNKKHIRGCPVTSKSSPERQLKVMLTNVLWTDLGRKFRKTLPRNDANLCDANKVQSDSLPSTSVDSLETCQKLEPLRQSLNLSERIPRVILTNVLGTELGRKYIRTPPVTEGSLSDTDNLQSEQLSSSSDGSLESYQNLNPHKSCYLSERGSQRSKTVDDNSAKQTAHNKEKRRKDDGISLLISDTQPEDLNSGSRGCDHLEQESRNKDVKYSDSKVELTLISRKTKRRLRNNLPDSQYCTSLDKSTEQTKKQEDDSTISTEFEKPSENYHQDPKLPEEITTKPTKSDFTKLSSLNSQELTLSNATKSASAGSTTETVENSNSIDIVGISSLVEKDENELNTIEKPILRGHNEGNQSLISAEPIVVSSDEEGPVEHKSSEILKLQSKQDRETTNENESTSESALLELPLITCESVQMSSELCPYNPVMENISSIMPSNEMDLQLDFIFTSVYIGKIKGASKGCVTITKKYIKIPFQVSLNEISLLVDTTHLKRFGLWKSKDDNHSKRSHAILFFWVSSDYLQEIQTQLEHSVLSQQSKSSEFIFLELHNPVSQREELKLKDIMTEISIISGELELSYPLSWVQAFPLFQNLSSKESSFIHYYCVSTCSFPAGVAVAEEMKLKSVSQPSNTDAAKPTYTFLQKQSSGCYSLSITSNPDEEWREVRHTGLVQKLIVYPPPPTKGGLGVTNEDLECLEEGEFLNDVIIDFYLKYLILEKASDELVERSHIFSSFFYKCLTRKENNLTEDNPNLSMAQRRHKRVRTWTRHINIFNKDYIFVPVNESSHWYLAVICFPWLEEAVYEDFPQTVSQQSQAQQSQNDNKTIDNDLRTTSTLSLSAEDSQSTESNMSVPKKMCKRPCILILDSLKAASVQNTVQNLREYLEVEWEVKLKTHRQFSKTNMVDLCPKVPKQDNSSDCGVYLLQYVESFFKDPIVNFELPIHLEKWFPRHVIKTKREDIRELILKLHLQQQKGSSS

[4] = molecular target: T4, Caspase-3 (Homo sapiens, UniProt P42574); type: functional;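 note: Dose-response selectivity test against caspase-3 for candidate inhibitors of sentrin-specific proteases (SENPs)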
T4 sequence (P42574 whole entry): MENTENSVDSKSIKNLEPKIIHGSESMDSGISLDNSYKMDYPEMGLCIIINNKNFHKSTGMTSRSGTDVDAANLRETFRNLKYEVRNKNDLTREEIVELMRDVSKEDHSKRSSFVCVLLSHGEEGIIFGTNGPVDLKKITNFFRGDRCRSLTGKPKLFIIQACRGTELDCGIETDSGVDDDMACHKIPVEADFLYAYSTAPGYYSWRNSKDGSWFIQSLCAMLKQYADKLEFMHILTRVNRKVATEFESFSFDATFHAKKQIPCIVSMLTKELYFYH

[5] = molecular target: T5, Sentrin-specific protease 6 (Homo sapiens, UniProt Q9GZR1); type: functional;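 note: Luminescence-based dose-response confirmatory assay of SENP6 inhibition, following up an ultra-high-throughput screen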
T5 sequence (Q9GZR1 whole entry): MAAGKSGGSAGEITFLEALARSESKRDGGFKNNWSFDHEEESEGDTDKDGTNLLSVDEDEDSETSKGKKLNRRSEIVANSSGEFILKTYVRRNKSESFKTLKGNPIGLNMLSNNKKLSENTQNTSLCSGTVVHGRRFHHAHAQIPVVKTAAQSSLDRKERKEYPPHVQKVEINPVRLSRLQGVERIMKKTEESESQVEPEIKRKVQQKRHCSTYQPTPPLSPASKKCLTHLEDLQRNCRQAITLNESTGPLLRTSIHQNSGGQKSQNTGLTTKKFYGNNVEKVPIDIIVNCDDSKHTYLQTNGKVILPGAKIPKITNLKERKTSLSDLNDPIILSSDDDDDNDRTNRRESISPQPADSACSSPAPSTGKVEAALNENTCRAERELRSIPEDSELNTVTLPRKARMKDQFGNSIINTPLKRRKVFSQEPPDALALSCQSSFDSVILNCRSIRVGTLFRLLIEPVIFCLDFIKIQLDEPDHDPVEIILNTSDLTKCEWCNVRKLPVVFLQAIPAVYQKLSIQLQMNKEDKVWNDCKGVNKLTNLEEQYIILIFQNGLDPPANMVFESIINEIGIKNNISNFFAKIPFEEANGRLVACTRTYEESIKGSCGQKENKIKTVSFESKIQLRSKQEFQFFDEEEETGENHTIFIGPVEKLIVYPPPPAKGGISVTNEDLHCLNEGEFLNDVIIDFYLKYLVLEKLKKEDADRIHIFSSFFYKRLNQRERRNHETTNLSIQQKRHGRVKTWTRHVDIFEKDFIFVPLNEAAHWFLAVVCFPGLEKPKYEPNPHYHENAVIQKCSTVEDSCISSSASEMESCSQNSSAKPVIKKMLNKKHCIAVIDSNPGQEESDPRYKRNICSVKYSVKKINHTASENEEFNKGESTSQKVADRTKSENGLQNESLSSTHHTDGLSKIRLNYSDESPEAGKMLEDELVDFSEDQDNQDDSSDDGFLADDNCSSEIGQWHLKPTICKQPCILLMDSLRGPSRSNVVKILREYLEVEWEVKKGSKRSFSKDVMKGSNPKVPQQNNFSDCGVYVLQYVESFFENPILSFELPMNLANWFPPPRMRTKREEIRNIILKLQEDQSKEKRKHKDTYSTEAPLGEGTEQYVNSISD

[6] = Luminescence Cell-Based Dose Response HTS to Identify Activators of Luciferase Translation or Activity in H4 […] Cells. [Related pubchem assays: 1829 (Project Summary), 1814 (Primary HTS)]; type: functional
[7] = test system: H4; assay: Luminescence Cell-Based Dose Response HTS to Identify Activators of 5'UTR Stem-Loop Driven Prion Protein mRNA Translation in H4 Neuroglioblastoma Cells. [Related pubchem assays: 1829 (Project Summary), 1814 (Primary HTS)]; type: functional; conditions: Homo sapiens
[8] = Luminescence Cell-Based Dose Confirmation HTS to Identify Activators of 5'UTR Stem-Loop Driven Alpha-Synuclein mRNA Translation in H4 Neuroglioblastoma Cells. [Related pubchem assays: 1829 (Project Summary), 1814 (Primary HTS)]; type: functional
[9] = cytotoxicity toward NIH3T3 fibroblasts, dose response, counter-screen, cell-based, ATP luminescence, mouse fibroblasts (AID 2010); type: functional;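 note: cells exposed to compound for about 90 hours before reading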
[10] = inhibitors of intracellular T. cruzi replication, confirmation, NIH3T3 host cells, beta-gal luminescence (AID 2044); type: functional, cell-based;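 note: intracellular parasites grown in NIH/3T3 mouse fibroblasts as host cells; luminescent beta-galactosidase reporter signal from transgenic T. cruzi replicating inside host cells; inhibitors lower the luminescence signal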
[11] = molecular target: T6, Apoptotic protease-activating factor 1 (Homo sapiens, UniProt O14727); type: functional
T6 sequence (O14727 whole entry): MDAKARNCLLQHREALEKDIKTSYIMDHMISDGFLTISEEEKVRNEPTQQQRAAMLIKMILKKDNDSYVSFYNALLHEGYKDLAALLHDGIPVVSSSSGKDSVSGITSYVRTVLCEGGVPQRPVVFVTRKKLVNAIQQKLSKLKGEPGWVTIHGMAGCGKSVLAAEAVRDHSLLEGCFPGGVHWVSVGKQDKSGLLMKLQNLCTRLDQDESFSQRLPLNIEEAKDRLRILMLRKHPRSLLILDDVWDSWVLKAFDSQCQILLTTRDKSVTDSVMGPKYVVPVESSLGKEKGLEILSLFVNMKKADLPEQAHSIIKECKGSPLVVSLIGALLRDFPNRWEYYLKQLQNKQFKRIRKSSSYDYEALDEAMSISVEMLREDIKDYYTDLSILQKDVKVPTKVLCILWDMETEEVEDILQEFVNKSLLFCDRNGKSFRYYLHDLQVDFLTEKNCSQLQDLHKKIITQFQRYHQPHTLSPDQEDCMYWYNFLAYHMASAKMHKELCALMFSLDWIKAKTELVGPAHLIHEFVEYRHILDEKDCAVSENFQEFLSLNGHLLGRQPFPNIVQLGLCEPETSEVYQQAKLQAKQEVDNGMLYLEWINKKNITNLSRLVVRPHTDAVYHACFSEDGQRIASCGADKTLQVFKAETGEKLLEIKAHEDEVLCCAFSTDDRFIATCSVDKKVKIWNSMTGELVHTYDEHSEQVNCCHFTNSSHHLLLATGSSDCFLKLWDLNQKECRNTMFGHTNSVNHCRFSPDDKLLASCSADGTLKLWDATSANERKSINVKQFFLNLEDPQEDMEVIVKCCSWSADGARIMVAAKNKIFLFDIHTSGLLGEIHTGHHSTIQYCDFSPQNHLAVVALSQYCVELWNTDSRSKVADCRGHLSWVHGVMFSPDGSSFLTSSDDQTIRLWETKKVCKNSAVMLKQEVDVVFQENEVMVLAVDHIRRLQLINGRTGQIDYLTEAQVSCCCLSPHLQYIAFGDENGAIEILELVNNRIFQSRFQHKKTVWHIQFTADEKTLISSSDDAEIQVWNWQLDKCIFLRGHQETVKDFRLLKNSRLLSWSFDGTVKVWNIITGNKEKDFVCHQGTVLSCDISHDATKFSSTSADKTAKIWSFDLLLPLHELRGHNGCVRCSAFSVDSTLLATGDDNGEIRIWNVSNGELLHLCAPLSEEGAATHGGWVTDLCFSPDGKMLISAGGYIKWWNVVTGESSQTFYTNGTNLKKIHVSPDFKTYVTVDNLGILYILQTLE

[12] = molecular target: T7, Protein skinhead-1 (Caenorhabditis elegans, UniProt P34707); type: functional
T7 sequence (P34707 whole entry): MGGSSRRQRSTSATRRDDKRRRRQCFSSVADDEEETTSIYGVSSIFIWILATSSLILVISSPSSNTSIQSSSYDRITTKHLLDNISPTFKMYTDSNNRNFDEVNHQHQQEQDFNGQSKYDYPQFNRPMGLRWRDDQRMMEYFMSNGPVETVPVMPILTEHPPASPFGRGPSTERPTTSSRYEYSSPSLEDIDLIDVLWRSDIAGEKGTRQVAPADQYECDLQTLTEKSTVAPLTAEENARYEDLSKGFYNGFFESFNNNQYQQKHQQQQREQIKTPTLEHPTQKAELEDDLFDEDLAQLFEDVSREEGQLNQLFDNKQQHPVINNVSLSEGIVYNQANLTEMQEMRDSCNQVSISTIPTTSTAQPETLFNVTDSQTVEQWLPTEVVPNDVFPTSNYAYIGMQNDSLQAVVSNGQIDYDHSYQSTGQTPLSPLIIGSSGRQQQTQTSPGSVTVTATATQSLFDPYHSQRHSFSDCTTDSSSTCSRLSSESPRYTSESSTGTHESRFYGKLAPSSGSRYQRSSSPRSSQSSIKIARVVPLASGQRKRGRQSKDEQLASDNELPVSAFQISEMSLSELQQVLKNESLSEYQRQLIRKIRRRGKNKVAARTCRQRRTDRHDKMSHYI

Structure (SMILES) | AC50 [1] | IC50 [2] | IC50 [3] | IC50 [4] | IC50 [5] | further results
O=C(Nc1ccc(N2CCOCC2)c(Cl)c1)c1cccnc1 | 13.3 µM (active) | – | – | – | – | –
CN(Cc1ccccc1)C(=O)CCS(=O)(=O)c1ccc2c(c1)NC(=O)CS2 | 3.51 µM (active) | – | – | – | – | –
O=C(O)c1ccc(COc2ccccc2[N+](=O)[O-])o1 | – | 31.3 µM (active) | 10.5 µM (active) | > 100 µM (inactive) | 35.6 µM (active) | –
O=C(C[C@@H]1C[C@@H]2c3cc(NC(=O)c4cccnc4)ccc3O[C@@H]2[C@@H](CO)O1)NCc1cccnc1 | 10.7 µM (active) | – | – | – | – | –
COc1ccc(-c2noc(Cc3cccs3)n2)cc1 | – | 25 µM (active) | 9.93 µM (active) | 27.3 µM (active) | 31.8 µM (active) | EC50 [6]: 0.501 µM (active); EC50 [7]: > 120 µM (not active); EC50 [8]: 24.9 µM (active)
COc1ccc(C/N=C/c2[nH]c3ccc(Br)c(Cl)c3c2O)cc1 | – | – | – | – | – | EC50 [9]: > 60 µM (not active); EC50 [10]: 1.31 µM (active); IC50 [11]: 59.2 µM (active)
c1ccc(CCNc2ncnc3c2cnn3-c2ccccc2)cc1 | – | 22.9 µM (active) | 7.14 µM (active) | 22.5 µM (active) | 19.6 µM (active) | IC50 [12]: > 100 µM (inactive)
O=C(N/N=C/C(Cl)=C\c1ccccc1)c1cccs1 | – | > 100 µM (inactive) | 5.83 µM (active) | 28.7 µM (active) | > 100 µM (inactive) | –
